Measurements from paper PMC5218480 (PLoS ONE, 2017).

Tested on: MV-4-11 cells
Test: Gene expression microarray analysis (Affymetrix PrimeView) and GSEA
Format: cell-based, human
Design: RFU PODN (11730768_x_at) / Fold change /veh PODN (11730768_x_at) / RFU LINC00158 (11744669_a_at) / Fold change /veh LINC00158 (11744669_a_at) / RFU DUSP10 (11751237_a_at) / Fold change /veh DUSP10 (11751237_a_at) / RFU ID3 (11757404_x_at) / Fold change /veh ID3 (11757404_x_at) / RFU PLEKHG5 (11737974_s_at) / Fold change /veh PLEKHG5 (11737974_s_at) / RFU LRRC4B (11730491_at) / Fold change /veh LRRC4B (11730491_at) / RFU GIMAP4 (11747438_a_at) / Fold change /veh GIMAP4 (11747438_a_at) / RFU KRT8 (11758183_x_at) / Fold change /veh KRT8 (11758183_x_at) / RFU CNN1 (11734310_a_at) / Fold change /veh CNN1 (11734310_a_at) / RFU VPS37D (11726825_at) / Fold change /veh VPS37D (11726825_at) / RFU C10orf10 (11716522_x_at) / Fold change /veh C10orf10 (11716522_x_at) / RFU KIR2DL2 /// KIR2DL4 /// KIR2DL5A /// KIR2DL5B /// KIR2DS1 /// KIR2DS2 /// KIR2DS3 /// KIR2DS4 /// KIR3DL3 /// KIR3DL3 /// KIR3DS1 (11738374_at) / Fold change /veh KIR2DL2 /// KIR2DL4 /// KIR2DL5A /// KIR2DL5B /// KIR2DS1 /// KIR2DS2 /// KIR2DS3 /// KIR2DS4 /// KIR3DL3 /// KIR3DL3 /// KIR3DS1 (11738374_at) / RFU C1QL1 (11718748_at) / Fold change /veh C1QL1 (11718748_at) / RFU TMPRSS4 (11747572_a_at) / Fold change /veh TMPRSS4 (11747572_a_at) / RFU HAMP (11756126_x_at) / Fold change /veh HAMP (11756126_x_at) / RFU RNFT2 (11725882_a_at) / Fold change /veh RNFT2 (11725882_a_at) / RFU NR4A2 (11747474_a_at) / Fold change /veh NR4A2 (11747474_a_at) / RFU ABCC12 (11746883_a_at) / Fold change /veh ABCC12 (11746883_a_at) / RFU TMEM136 (11760407_x_at) / Fold change /veh TMEM136 (11760407_x_at) / RFU CLDN22 /// WWC2 (11732394_at) / Fold change /veh CLDN22 /// WWC2 (11732394_at) / RFU HLA-DPB1 (11760878_x_at) / Fold change /veh HLA-DPB1 (11760878_x_at) / RFU SPINT1 (11716480_a_at) / Fold change /veh SPINT1 (11716480_a_at) / RFU GAP43 (11754022_s_at) / Fold change /veh GAP43 (11754022_s_at) / RFU A4GNT (11735810_at) / Fold change /veh A4GNT (11735810_at) / RFU PRB3 (11715151_x_at) / Fold change /veh PRB3 (11715151_x_at) / RFU TUBB4B (11761932_at) / Fold change /veh TUBB4B (11761932_at) / RFU CAPN14 (11732068_a_at) / Fold change /veh CAPN14 (11732068_a_at) / RFU TMCC2 (11721928_a_at) / Fold change /veh TMCC2 (11721928_a_at) / RFU IRGQ (11745062_a_at) / Fold change /veh IRGQ (11745062_a_at) / RFU FAM174B (11720279_a_at) / Fold change /veh FAM174B (11720279_a_at) / RFU TMPRSS4 (11748680_a_at) / Fold change /veh TMPRSS4 (11748680_a_at) / RFU FAM212B (11763350_a_at) / Fold change /veh FAM212B (11763350_a_at) / RFU PLEKHG5 (11743358_a_at) / Fold change /veh PLEKHG5 (11743358_a_at) / RFU ZSCAN30 (11745921_a_at) / Fold change /veh ZSCAN30 (11745921_a_at) / RFU CMKLR1 (11741424_a_at) / Fold change /veh CMKLR1 (11741424_a_at) / RFU LOC101060620 /// MAPK8IP1 (11723275_at) / Fold change /veh LOC101060620 /// MAPK8IP1 (11723275_at) / RFU SPTSSB (11747773_x_at) / Fold change /veh SPTSSB (11747773_x_at) / RFU PRSS12 (11739890_at) / Fold change /veh PRSS12 (11739890_at) / RFU BIN1 (11741810_x_at) / Fold change /veh BIN1 (11741810_x_at) / RFU WNT11 (11732464_a_at) / Fold change /veh WNT11 (11732464_a_at) / RFU C10orf10 (11716521_a_at) / Fold change /veh C10orf10 (11716521_a_at) / RFU C5orf56 (11738089_at) / Fold change /veh C5orf56 (11738089_at) / RFU CYB561 (11721691_x_at) / Fold change /veh CYB561 (11721691_x_at) / RFU ANKRD19P (11752326_a_at) / Fold change /veh ANKRD19P (11752326_a_at) / RFU OR2T12 /// OR2T33 /// OR2T8 (11738714_s_at) / Fold change /veh OR2T12 /// OR2T33 /// OR2T8 (11738714_s_at) / RFU VCAN (11748164_a_at) / Fold change /veh VCAN (11748164_a_at) / RFU JSRP1 (11732532_at) / Fold change /veh JSRP1 (11732532_at) / RFU KRTAP10-11 (11738290_x_at) / Fold change /veh KRTAP10-11 (11738290_x_at) / RFU MYO3A (11730013_a_at) / Fold change /veh MYO3A (11730013_a_at) / RFU EBF3 (11725865_a_at) / Fold change /veh EBF3 (11725865_a_at) / RFU CAMK2N1 (11719241_x_at) / Fold change /veh CAMK2N1 (11719241_x_at) / RFU C5orf56 (11738088_a_at) / Fold change /veh C5orf56 (11738088_a_at) / RFU OLFML3 (11715873_a_at) / Fold change /veh OLFML3 (11715873_a_at) / RFU LOC100653217 /// NTM (11731650_a_at) / Fold change /veh LOC100653217 /// NTM (11731650_a_at) / RFU MAPK11 (11762145_a_at) / Fold change /veh MAPK11 (11762145_a_at) / RFU FIZ1 (11724087_x_at) / Fold change /veh FIZ1 (11724087_x_at) / RFU OASL (11726364_x_at) / Fold change /veh OASL (11726364_x_at) / RFU SOX15 (11748057_x_at) / Fold change /veh SOX15 (11748057_x_at) / RFU CD79A (11719716_a_at) / Fold change /veh CD79A (11719716_a_at) / RFU HIST1H1D (11736915_at) / Fold change /veh HIST1H1D (11736915_at) / RFU CASKIN2 (11723855_a_at) / Fold change /veh CASKIN2 (11723855_a_at) / RFU LOC730098 (11760151_x_at) / Fold change /veh LOC730098 (11760151_x_at) / RFU OR4N2 (11742367_at) / Fold change /veh OR4N2 (11742367_at) / RFU PRRT2 (11749266_a_at) / Fold change /veh PRRT2 (11749266_a_at) / RFU SNX32 (11753110_a_at) / Fold change /veh SNX32 (11753110_a_at) / RFU CDHR5 (11726645_a_at) / Fold change /veh CDHR5 (11726645_a_at) / RFU RCAN1 (11760418_a_at) / Fold change /veh RCAN1 (11760418_a_at) / RFU FAM167A (11723789_a_at) / Fold change /veh FAM167A (11723789_a_at) / RFU FAM26E (11764081_at) / Fold change /veh FAM26E (11764081_at) / RFU ISYNA1 (11749810_s_at) / Fold change /veh ISYNA1 (11749810_s_at) / RFU ACY1 (11761880_at) / Fold change /veh ACY1 (11761880_at) / RFU 11764098_at / Fold change /veh 11764098_at / RFU SAMD14 (11745864_x_at) / Fold change /veh SAMD14 (11745864_x_at) / RFU NPB (11741838_a_at) / Fold change /veh NPB (11741838_a_at) / RFU TMPRSS6 (11731388_a_at) / Fold change /veh TMPRSS6 (11731388_a_at) / RFU KRTAP10-2 (11738614_at) / Fold change /veh KRTAP10-2 (11738614_at) / RFU ARHGAP8 /// PRR5-ARHGAP8 (11727945_x_at) / Fold change /veh ARHGAP8 /// PRR5-ARHGAP8 (11727945_x_at) / RFU KRTAP5-7 /// NADSYN1 (11734609_at) / Fold change /veh KRTAP5-7 /// NADSYN1 (11734609_at) / RFU RASL12 (11751679_a_at) / Fold change /veh RASL12 (11751679_a_at) / RFU CDKN2B (11736163_a_at) / Fold change /veh CDKN2B (11736163_a_at) / RFU PRF1 (11729649_at) / Fold change /veh PRF1 (11729649_at) / RFU, ZNF638 /// ZNF638-IT1 / Fold change vs veh, ZNF638 /// ZNF638-IT1 / RFU, PANK3 / Fold change vs veh, PANK3 / RFU, SH3YL1 / Fold change vs veh, SH3YL1 / RFU, ZEB2 / Fold change vs veh, ZEB2 / RFU, NRIP1 / Fold change vs veh, NRIP1 / RFU, PTTG1IP / Fold change vs veh, PTTG1IP / RFU, CAPN2 / Fold change vs veh, CAPN2 / RFU, MED14 / Fold change vs veh, MED14 / RFU, SNORA58 / Fold change vs veh, SNORA58 / RFU, C1orf63 / Fold change vs veh, C1orf63 / RFU, LRRFIP1 / Fold change vs veh, LRRFIP1 / RFU, NDUFAF7 / Fold change vs veh, NDUFAF7 / RFU, SLC12A2 / Fold change vs veh, SLC12A2 / RFU, IBTK / Fold change vs veh, IBTK / RFU, ESF1 / Fold change vs veh, ESF1 / Fold change vs veh, TMEM50B / RFU, TAOK1 / Fold change vs veh, TAOK1 / RFU, ACBD3 / Fold change vs veh, ACBD3 / RFU, TMA16 / Fold change vs veh, TMA16 / RFU, RWDD3 / Fold change vs veh, RWDD3 / RFU, BCAT1 / Fold change vs veh, BCAT1 / RFU, EDEM3 / Fold change vs veh, EDEM3 / RFU, TMEM33 / Fold change vs veh, TMEM33 / RFU, WDR75 / Fold change vs veh, WDR75 / RFU, AHCTF1 / Fold change vs veh, AHCTF1 / RFU, TFRC / Fold change vs veh, TFRC / RFU, ZDHHC17 / Fold change vs veh, ZDHHC17 / RFU, NOM1 / Fold change vs veh, NOM1 / RFU, ARL8B / Fold change vs veh, ARL8B / RFU, ZBTB11 / Fold change vs veh, ZBTB11 / RFU, TAMM41 / Fold change vs veh, TAMM41 / RFU, KIAA1704 /// LOC100996395 / Fold change vs veh, KIAA1704 /// LOC100996395 / RFU, ING1 / Fold change vs veh, ING1 / RFU, TRMT61B / Fold change vs veh, TRMT61B / RFU, FUBP3 / Fold change vs veh, FUBP3 / RFU, TP53 / Fold change vs veh, TP53 / RFU, TNKS2 / Fold change vs veh, TNKS2 / RFU, ZFP14 / Fold change vs veh, ZFP14 / RFU, ACTR2 / Fold change vs veh, ACTR2 / RFU, PPP3R1 / Fold change vs veh, PPP3R1 / RFU, PIK3R1 / Fold change vs veh, PIK3R1 / RFU, HNRNPA1 / Fold change vs veh, HNRNPA1 / RFU, RNF170 / Fold change vs veh, RNF170 / RFU, ZNF28 / Fold change vs veh, ZNF28 / RFU, RNGTT / Fold change vs veh, RNGTT / RFU, OGT / Fold change vs veh, OGT / RFU, BRD1 / Fold change vs veh, BRD1 / RFU, MARS / Fold change vs veh, MARS / RFU, ZNF655 / Fold change vs veh, ZNF655 / RFU, FAHD1 / Fold change vs veh, FAHD1 / RFU, BDP1 / Fold change vs veh, BDP1 / RFU, LRRCC1 / Fold change vs veh, LRRCC1 / RFU, ARID1A / Fold change vs veh, ARID1A / RFU, ZNF146 / Fold change vs veh, ZNF146 / RFU, ZNF330 / Fold change vs veh, ZNF330 / RFU, GPN3 / Fold change vs veh, GPN3 / RFU, C9orf123 / Fold change vs veh, C9orf123 / RFU, N4BP2L2 / Fold change vs veh, N4BP2L2 / RFU, ARFIP1 / Fold change vs veh, ARFIP1 / RFU, FAM179B / Fold change vs veh, FAM179B / RFU, BCL10 / Fold change vs veh, BCL10 / RFU, UHRF1BP1L / Fold change vs veh, UHRF1BP1L / RFU, BET1 / Fold change vs veh, BET1 / RFU, CNOT2 / Fold change vs veh, CNOT2 / RFU, ZNF268 / Fold change vs veh, ZNF268 / Fold change vs veh, ZNF507 / RFU, DGCR2 / Fold change vs veh, DGCR2 / RFU, WDSUB1 / Fold change vs veh, WDSUB1 / Fold change vs veh, HSP90B1 /// MIR3652 / RFU, ADSS / Fold change vs veh, ADSS / RFU, GK / Fold change vs veh, GK / RFU, ZNF148 / Fold change vs veh, ZNF148 / RFU, TAF9 / Fold change vs veh, TAF9 / RFU, SLC1A5 / Fold change vs veh, SLC1A5 / RFU, SLMO2 / Fold change vs veh, SLMO2 / RFU, ABCC4 / Fold change vs veh, ABCC4 / RFU, LOC101060439 /// RAP1B / Fold change vs veh, LOC101060439 /// RAP1B / RFU, RFX7 / Fold change vs veh, RFX7 / RFU, GTPBP10 / Fold change vs veh, GTPBP10 / RFU, CNEP1R1 / Fold change vs veh, CNEP1R1 / RFU, BIVM-ERCC5 /// ERCC5 / Fold change vs veh, BIVM-ERCC5 /// ERCC5 / RFU, ILF3 / Fold change vs veh, ILF3 / RFU 11762660_at / Fold change /veh 11762660_at / RFU VCAN (11757783_s_at) / Fold change /veh VCAN (11757783_s_at) / RFU DDX43 (11728927_at) / Fold change /veh DDX43 (11728927_at) / RFU KRT8 (11758188_x_at) / Fold change /veh KRT8 (11758188_x_at) / RFU NKD1 (11759106_at) / Fold change /veh NKD1 (11759106_at) / RFU SRD5A1 (11742802_a_at) / Fold change /veh SRD5A1 (11742802_a_at) / RFU TPSAB1 /// TPSB2 (11721975_s_at) / Fold change /veh TPSAB1 /// TPSB2 (11721975_s_at) / RFU GSTM3 (11746129_a_at) / Fold change /veh GSTM3 (11746129_a_at) / RFU IL23R (11737362_x_at) / Fold change /veh IL23R (11737362_x_at) / RFU TMEM51 (11727254_a_at) / Fold change /veh TMEM51 (11727254_a_at) / RFU PIWIL2 (11732686_x_at) / Fold change /veh PIWIL2 (11732686_x_at) / RFU ORM1 (11744905_x_at) / Fold change /veh ORM1 (11744905_x_at) / RFU CCDC152 (11743942_at) / Fold change /veh CCDC152 (11743942_at) / RFU ECM1 (11717891_a_at) / Fold change /veh ECM1 (11717891_a_at) / RFU IL23R (11748794_a_at) / Fold change /veh IL23R (11748794_a_at) / RFU TNFAIP8L3 (11732012_x_at) / Fold change /veh TNFAIP8L3 (11732012_x_at) / RFU MBOAT4 (11741988_at) / Fold change /veh MBOAT4 (11741988_at) / RFU 11764193_at / Fold change /veh 11764193_at / RFU TMEM53 (11763286_at) / Fold change /veh TMEM53 (11763286_at) / RFU MAGEB2 (11727129_at) / Fold change /veh MAGEB2 (11727129_at) / RFU TMEM200A (11744735_a_at) / Fold change /veh TMEM200A (11744735_a_at) / RFU CCDC152 (11751479_a_at) / Fold change /veh CCDC152 (11751479_a_at) / RFU FAM211A (11726209_a_at) / Fold change /veh FAM211A (11726209_a_at) / RFU RGS16 (11746705_a_at) / Fold change /veh RGS16 (11746705_a_at) / RFU VCAN (11755009_s_at) / Fold change /veh VCAN (11755009_s_at) / RFU RHOB (11743442_s_at) / Fold change /veh RHOB (11743442_s_at) / RFU RGS16 (11720943_a_at) / Fold change /veh RGS16 (11720943_a_at) / RFU RGS16 (11720944_at) / Fold change /veh RGS16 (11720944_at) / RFU, VPS4B / Fold change vs veh, VPS4B / RFU, CREB1 / Fold change vs veh, CREB1 / RFU, DNAJC13 / Fold change vs veh, DNAJC13 / RFU, GNAQ / Fold change vs veh, GNAQ / RFU, CDK5R1 / Fold change vs veh, CDK5R1 / RFU, ZRANB3 / Fold change vs veh, ZRANB3 / RFU, CUL4A / Fold change vs veh, CUL4A / RFU, CCNY / Fold change vs veh, CCNY / RFU, UFL1 / Fold change vs veh, UFL1 / RFU, COG3 / Fold change vs veh, COG3 / RFU, DIAPH2 / Fold change vs veh, DIAPH2 / RFU, SKA2 / Fold change vs veh, SKA2 / RFU, AFF3 / Fold change vs veh, AFF3 / RFU, LMF1 / Fold change vs veh, LMF1 / RFU, IPO11 / Fold change vs veh, IPO11 / RFU, DFFB / Fold change vs veh, DFFB / RFU, FOXP1 / Fold change vs veh, FOXP1 / RFU, CARD8 / Fold change vs veh, CARD8 / RFU, STRN3 / Fold change vs veh, STRN3 / RFU, ADK / Fold change vs veh, ADK / RFU, RASSF2 / Fold change vs veh, RASSF2 / RFU, WIPF1 / Fold change vs veh, WIPF1 / RFU, LARP1B / Fold change vs veh, LARP1B / RFU, RASA1 / Fold change vs veh, RASA1 / RFU, RB1 / Fold change vs veh, RB1 / RFU, PPFIA1 / Fold change vs veh, PPFIA1 / RFU, MAT2A / Fold change vs veh, MAT2A / RFU, CCT5 / Fold change vs veh, CCT5 / RFU, WDR92 / Fold change vs veh, WDR92 / RFU, CUX1 / Fold change vs veh, CUX1 / RFU, TTC7A / Fold change vs veh, TTC7A / RFU, TMEM135 / Fold change vs veh, TMEM135 / RFU, DEPTOR / Fold change vs veh, DEPTOR / RFU, CPM / Fold change vs veh, CPM / RFU, DNAJB6 / Fold change vs veh, DNAJB6 / RFU, CACNA2D3 / Fold change vs veh, CACNA2D3 / RFU, DTX4 / Fold change vs veh, DTX4 / RFU, TFCP2 / Fold change vs veh, TFCP2 / RFU, GMCL1 /// GMCL1P1 / Fold change vs veh, GMCL1 /// GMCL1P1 / RFU, AEBP2 / Fold change vs veh, AEBP2 / RFU, SNHG1 /// SNORD22 /// SNORD25 /// SNORD26 /// SNORD27 /// SNORD28 /// SNORD29 /// SNORD31 / Fold change vs veh, SNHG1 /// SNORD22 /// SNORD25 /// SNORD26 /// SNORD27 /// SNORD28 /// SNORD29 /// SNORD31 / Fold change (Aza/veh), C12orf56 (ProbeSet 11735607_a_at) / Fold change (ACY-1035/veh), C12orf56 (ProbeSet 11735607_a_at) / Fold change (Aza/veh), FGFR1OP (ProbeSet 11751329_s_at) / Fold change (ACY-1035/veh), FGFR1OP (ProbeSet 11751329_s_at) / Fold change (Aza/veh), VPS36 (ProbeSet 11739960_a_at) / Fold change (ACY-1035/veh), VPS36 (ProbeSet 11739960_a_at) / RFU SYPL1 (11715823_x_at) / Fold change /veh SYPL1 (11715823_x_at) / RFU IGFBP7 (11715501_s_at) / Fold change /veh IGFBP7 (11715501_s_at) / RFU REEP3 (11722064_at) / Fold change /veh REEP3 (11722064_at) / RFU IGLL1 (11728026_x_at) / Fold change /veh IGLL1 (11728026_x_at): dose or concentration left out as unconfirmed
Conditions: ProbeSet 11716844_s_at; LIST D

## Nc1ccc(-c2cccs2)cc1NC(=O)c1ccc2c(c1)cc(C1CC1)n2CCN1CCOCC1 [ACY-1035]
  Fold change vs veh, DNAJC13: 0.91
